Data on three compounds can be found in US8481459B2, “Chemical inhibitors of ethylene biosynthesis” (Academia Sinica, priority 2010, dated 2013).

The assay concerns etiolated eto1-4 seedlings. Put plainly: Triple response phenotype / hypocotyl length of etiolated eto1-4 seedlings. It counts as in vivo, Arabidopsis thaliana. The settings on record: for ranking in both hypocotyl length and ethylene level assays / suppression of the eto1-4 (triple response) phenotype: 10 μM; for ranking in both hypocotyl length and ethylene level assays: etiolated eto1-4, FIG. 3; for suppression of the eto1-4 (triple response) phenotype: germinated in the dark for 3 days; for effectiveness in phenotypical assay: etiolated eto1-4 seedlings; for concentration at which hypocotyl elongation becomes visible / concentration reaching maximal / nearly saturated effect on hypocotyl: eto1-4, 3 days in the dark, dose series. The protocol: All mutants and transgenic plants were derived from the wild-type Arabidopsis thaliana Columbia ecotype (Col-0) and cultivated under a long-day condition (16-h light/8-h dark at 22° C.) under exemplary e light (100-150 μE m^−2 s^−1). A reporter construct, 5×EBS::LUC (a generous gift from Drs. Hai Li and Anna N. Stepanova, Salk Institute, USA), containing 5 copies of EIN3 binding sequence (EBS) fused with luciferase gene (LUC) was transformed to eto1-4 and subsequently used for screening compounds of a chemical library. Ethylene mutants eto1-4, eto2-1, ctr1-1 and the EIN3 overexpression line (35S::EIN3) were described previously (Solano, et al. (1998) Genes Dev 12, 3703-3714). Seeds were sterilized with 30% bleach for 6 min and sown in half-strength Murashige and Skoog (0.5×MS) medium supplemented with 0.8% agar and stratified in the dark at 4° C. for 3-4 days before germination. For analysis of the triple response phenotype, stratified seeds were grown in the dark at 22° C. for 3 days before scoring the phenotype.
A DIVERSet library (ChemBridge Inc.) containing 10,000 small molecules (in DMSO) was used for chemical screening. Three rounds of chemical screenings were carried out in 0.5×MS agar medium containing individual chemicals in each well of 96- and 24-well micro-titer plates. The initial screening was performed by sowing 10 to 15 seeds in the wells of micro-titer plates containing small molecules at 50 μM to score the long-hypocotyl phenotype. For the second and third screenings, we used 25 μM of small molecules selected from the first round of screening to score and confirm the phenotype. The seedling phenotype was scored by use of a digital camera attached to a Zeiss stereomicroscope (SteREO V8), and quantitation of hypocotyl length was performed by use of NIH Image J software. AVG and silver thiosulfate (STS, by mixing silver nitrate and sodium thiosulfate at a 1:4 molar ratio immediately before use) were obtained from Sigma and used as controls to suppress ethylene biosynthesis and perception, respectively. Agar medium was supplemented with 1-aminocyclopropane-1-carboxylic acid (10 μM, Merck) to induce the triple response in etiolated seedlings.
Shortened hypocotyls in etiolated seedlings is one of the triple response phenotypes (Guzman, et al. (1990) Plant Cell 2, 513-523; Wang, et al. (2004) Nature 428, 945-950). Two chemical compounds negating ethylene response, AVG and STS, were included as a control for comparison.

The structures appear in SMILES notation. Entries after “also recorded” stand apart in the source; their conditions may differ.

Regarding `COc1ccc(C2CC(=O)c3cnc(Nc4ccccc4)nc3C2)cc1` (stereo not shown) [Compound 7303], the “ranking in both hypocotyl length and ethylene level assays” value (shortened to “ranking”) is “most effective”; the “suppression of the eto1-4 (triple response) phenotype” value (shortened to “suppression”) is “Suppression; also recorded: effect comparable to that of compounds 9393 and 9370”; the “effectiveness in phenotypical assay” value was “highly effective; also recorded: the most effective”; the “concentration at which hypocotyl elongation becomes visible” value came to 0.1 µM. Also, the “concentration reaching maximal / nearly saturated effect on hypocotyl” value was 5 µM.

As for `Cc1ccc(C2CC(=O)c3cnc(NC4CCCC4)nc3C2)cc1` (stereo not shown) [Compound 9370], the “ranking” value is recorded as “most effective”; the “suppression” value is reported as “Suppression; also recorded: effectiveness comparable to that of silver nitrate”; the “effectiveness in phenotypical assay” value is recorded as “highly effective”; the “concentration at which hypocotyl elongation becomes visible” value is 0.1 µM. Further, the “concentration reaching maximal / nearly saturated effect on hypocotyl” value was 5 µM.

`CC1(C)CC(=O)c2cnc(NC3CCCC3)nc2C1` [Compound 9393]: the “ranking” value was “most effective”; the “suppression” value was “Suppression; also recorded: effectiveness comparable to that of silver nitrate”; the “effectiveness in phenotypical assay” value is reported as “highly effective”.
